Source: US9796733B2, “Imidazo-pyrazine derivatives useful as soluble guanylate cyclase activators” (Merck Sharp & Dohme Corp., priority 2014, dated 2017)

Target: T1, sGC α1/β1 heterodimer (Homo sapiens, UniProt Q02108+Q02153)
T1 construct: expressed in transfected cells; host or cells: CHO-K1 (clone #7, CHO-K1/sGC)
T1 sequence (Q02108 1-690): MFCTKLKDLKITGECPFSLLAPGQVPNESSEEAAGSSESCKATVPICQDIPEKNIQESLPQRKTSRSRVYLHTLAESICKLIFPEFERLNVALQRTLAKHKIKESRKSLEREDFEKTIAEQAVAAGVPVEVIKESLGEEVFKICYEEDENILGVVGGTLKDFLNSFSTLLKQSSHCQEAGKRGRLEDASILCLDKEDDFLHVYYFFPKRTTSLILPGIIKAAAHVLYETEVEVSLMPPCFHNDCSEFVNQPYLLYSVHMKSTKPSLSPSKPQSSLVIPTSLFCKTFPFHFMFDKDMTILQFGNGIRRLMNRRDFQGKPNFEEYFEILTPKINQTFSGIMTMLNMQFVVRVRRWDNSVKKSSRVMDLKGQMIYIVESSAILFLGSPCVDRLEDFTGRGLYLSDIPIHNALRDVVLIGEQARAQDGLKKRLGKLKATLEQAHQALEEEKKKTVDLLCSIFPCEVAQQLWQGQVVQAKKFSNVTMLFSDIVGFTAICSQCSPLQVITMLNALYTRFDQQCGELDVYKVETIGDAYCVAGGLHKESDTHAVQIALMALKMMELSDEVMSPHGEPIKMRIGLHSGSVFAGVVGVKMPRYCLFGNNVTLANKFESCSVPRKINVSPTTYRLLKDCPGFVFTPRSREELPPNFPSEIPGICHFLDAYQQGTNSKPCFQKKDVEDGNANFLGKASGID
T1 sequence (Q02153 1-619): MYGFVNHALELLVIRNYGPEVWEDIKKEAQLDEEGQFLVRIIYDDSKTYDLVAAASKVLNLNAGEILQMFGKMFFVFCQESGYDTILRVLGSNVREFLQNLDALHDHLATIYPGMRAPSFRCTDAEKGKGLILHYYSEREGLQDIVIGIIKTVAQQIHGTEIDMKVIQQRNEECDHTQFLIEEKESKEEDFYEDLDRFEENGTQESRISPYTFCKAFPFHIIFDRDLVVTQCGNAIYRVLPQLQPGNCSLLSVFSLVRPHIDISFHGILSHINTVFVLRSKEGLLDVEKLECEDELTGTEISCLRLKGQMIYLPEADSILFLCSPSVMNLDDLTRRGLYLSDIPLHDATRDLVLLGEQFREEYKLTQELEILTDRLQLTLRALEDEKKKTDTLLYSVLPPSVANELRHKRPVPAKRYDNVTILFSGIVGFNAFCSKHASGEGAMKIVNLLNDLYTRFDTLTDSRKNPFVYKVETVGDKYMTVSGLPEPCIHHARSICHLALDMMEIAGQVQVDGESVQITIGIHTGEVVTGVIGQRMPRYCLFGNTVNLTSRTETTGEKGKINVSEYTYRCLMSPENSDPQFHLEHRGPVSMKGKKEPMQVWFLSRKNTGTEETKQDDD
Assay: Cell-based sGC functional assay (CASA assay): cGMP generation in CHO-K1/sGC cells, HTRF detection
Conditions: for Emax: CHO-K1, percent activation relative to standard Compound A in CHO-K1/sGC cells, read-out: % Act.; for EC50: inflection point (IP) of cGMP generation in CHO-K1/sGC cells, 4P fit, activity expressed as percentage of Compound A
Method in brief: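 Stable CHO-K1/sGC cells in EBSS buffer with 5 mM MgCl2, 0.05% BSA and 0.5 mM IBMX were incubated with compound (2.5% DMSO final) ±1 μM DETA-NO for 1 hr at 37° C. cGMP was measured by HTRF. Activation is expressed as % of reference HDA Compound A maximum, with IP and max fold induction from a 4P fit.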

Row | Emax | EC50 | SMILES
1 | 109% | 12 nM | CC1(c2ccc(F)cc2)C(=O)Nc2nc(-c3cn4ccnc4c(Cc4ccccc4)n3)nc(N)c21 (stereo not shown) [Example 93A, 4-amino-2-(8-benzylimidazo[1,2-a]pyrazin-6-yl)-5-(4-fluorophenyl)-5-methyl-5H-pyrrolo[2,3-d]pyrimidin-6(7H)-one]
2 | 108% | 5 nM | CC1(c2ccc(F)cc2)C(=O)Nc2nc(-c3cn4ccnc4c(Cc4cccc(Cl)c4)n3)nc(N)c21 (stereo not shown) [Example 94A, 4-amino-2-(8-(3-chlorobenzyl)imidazo[1,2-a]pyrazin-6-yl)-5-(4-fluorophenyl)-5-methyl-5H-pyrrolo[2,3-d]pyrimidin-6(7H)-one]
3 | 109% | 4 nM | CC1(c2ccc(Cl)cc2)C(=O)Nc2nc(-c3cn4ccnc4c(Cc4cccc(Cl)c4)n3)nc(N)c21 (stereo not shown) [Example 95A, 4-amino-2-(8-(3-chlorobenzyl)imidazo[1,2-a]pyrazin-6-yl)-5-(4-chlorophenyl)-5-methyl-5H-pyrrolo[2,3-d]pyrimidin-6(7H)-one]
4 | 106% | 4 nM | CC1(c2ccc(F)cc2)C(=O)Nc2nc(-c3cn4ccnc4c(Cc4ccc(F)c(F)c4)n3)nc(N)c21 (stereo not shown) [Example 96A, 4-amino-2-(8-(3,4-difluorobenzyl)imidazo[1,2-a]pyrazin-6-yl)-5-(4-fluorophenyl)-5-methyl-5H-pyrrolo[2,3-d]pyrimidin-6(7H)-one]
5 | 145% | 5 nM | CC1(c2ccc(Cl)cc2)C(=O)Nc2nc(-c3cn4ccnc4c(Cc4ccc(F)c(F)c4)n3)nc(N)c21 (stereo not shown) [Example 97A, 4-amino-5-(4-chlorophenyl)-2-(8-(3,4-difluorobenzyl)imidazo[1,2-a]pyrazin-6-yl)-5-methyl-5H-pyrrolo[2,3-d]pyrimidin-6(7H)-one]
6 | 110% | 13 nM | CC1(c2ccc(F)cc2)C(=O)Nc2nc(-c3cn4ccnc4c(Cc4c(F)ccc(F)c4F)n3)nc(N)c21 (stereo not shown) [Example 98A, 4-amino-5-(4-fluorophenyl)-5-methyl-2-(8-(2,3,6-trifluorobenzyl)imidazo[1,2-a]pyrazin-6-yl)-5H-pyrrolo[2,3-d]pyrimidin-6(7H)-one]
7 | 119% | 11 nM | CC1(c2ccc(Cl)cc2)C(=O)Nc2nc(-c3cn4ccnc4c(Cc4ccc(F)cc4)n3)nc(N)c21 (stereo not shown) [Example 99A, 4-amino-5-(4-chlorophenyl)-2-(8-(4-fluorobenzyl)imidazo[1,2-a]pyrazin-6-yl)-5-methyl-5H-pyrrolo[2,3-d]pyrimidin-6(7H)-one]
8 | 116% | 34 nM | CC1(c2ccccc2)C(=O)Nc2nc(-c3cn4ccnc4c(Cc4cccc(F)c4)n3)nc(N)c21 (stereo not shown) [Example 101B, 4-amino-2-(8-(3-fluorobenzyl)imidazo[1,2-a]pyrazin-6-yl)-5-methyl-5-phenyl-5H-pyrrolo[2,3-d]pyrimidin-6(7H)-one]
9 | 89% | 15 nM | CC1(c2ccccc2)C(=O)Nc2nc(-c3cn4ccnc4c(Cc4ccccc4)n3)nc(N)c21 (stereo not shown) [Example 102B, 4-amino-2-(8-benzylimidazo[1,2-a]pyrazin-6-yl)-5-methyl-5-phenyl-5H-pyrrolo[2,3-d]pyrimidin-6(7H)-one]
10 | 85% | 18 nM | CC1(c2ccccn2)C(=O)Nc2nc(-c3cn4ccnc4c(Cc4ccc(F)cc4)n3)nc(N)c21 (stereo not shown) [Example 103B, 4-amino-2-(8-(4-fluorobenzyl)imidazo[1,2-a]pyrazin-6-yl)-5-methyl-5-(pyridin-2-yl)-5H-pyrrolo[2,3-d]pyrimidin-6(7H)-one]
11 | 132% | 396 nM | Nc1nc(-c2cn3ccnc3c(Cc3ccc(F)cc3)n2)nc2c1C(c1ccc(F)cn1)(C1CC1)C(=O)N2 (stereo not shown) [Example 104A, 4-amino-5-cyclopropyl-2-(8-(4-fluorobenzyl)imidazo[1,2-a]pyrazin-6-yl)-5-(5-fluoropyridin-2-yl)-5H-pyrrolo[2,3-d]pyrimidin-6(7H)-one]
12 | 102% | 384 nM | Cc1ccc(C2(C)C(=O)Nc3nc(-c4cn5ccnc5c(Cc5ccc(F)cc5)n4)nc(N)c32)cn1 (stereo not shown) [Example 105A, 4-amino-2-(8-(4-fluorobenzyl)imidazo[1,2-a]pyrazin-6-yl)-5-methyl-5-(6-methylpyridin-3-yl)-5H-pyrrolo[2,3-d]pyrimidin-6(7H)-one]
13 | 83% | 252 nM | CCC1(c2ccc(F)cn2)C(=O)Nc2nc(-c3cn4ccnc4c(Cc4ccc(F)cc4)n3)nc(N)c21 (stereo not shown) [Example 106A, 4-amino-5-ethyl-2-(8-(4-fluorobenzyl)imidazo[1,2-a]pyrazin-6-yl)-5-(5-fluoropyridin-2-yl)-5H-pyrrolo[2,3-d]pyrimidin-6(7H)-one]
14 | 171% | 86 nM | CC1(c2ccc(Cl)cn2)C(=O)Nc2nc(-c3cn4ccnc4c(Cc4ccc(F)cc4)n3)nc(N)c21 (stereo not shown) [Example 107A, 4-amino-5-(5-chloropyridin-2-yl)-2-(8-(4-fluorobenzyl)imidazo[1,2-a]pyrazin-6-yl)-5-methyl-5H-pyrrolo[2,3-d]pyrimidin-6(7H)-one]
15 | 154% | 51 nM | Nc1nc(-c2cn3ccnc3c(Cc3ccccc3F)n2)nc2c1C(c1ccc(Cl)cn1)(C1CC1)C(=O)N2 (stereo not shown) [Example 110A, 4-amino-5-(5-chloropyridin-2-yl)-5-cyclopropyl-2-(8-(2-fluorobenzyl)imidazo[1,2-a]pyrazin-6-yl)-5H-pyrrolo[2,3-d]pyrimidin-6(7H)-one]
16 | 138% | 5 nM | CC1(c2ccc(Cl)c(F)c2)C(=O)Nc2nc(-c3cn4ccnc4c(CC4CCC4)n3)nc(N)c21 (stereo not shown) [Example 113B, 4-amino-5-(4-chloro-3-fluorophenyl)-2-(8-(cyclobutylmethyl)imidazo [1,2-a]pyrazin-6-yl)-5-methyl-5H-pyrrolo[2,3-d]pyrimidin-6(7H)-one]
17 | 79% | 10 nM | CC1(c2ccc(Cl)cn2)C(=O)Nc2nc(-c3cn4ccnc4c(CC4CCC4)n3)nc(N)c21 (stereo not shown) [Example 116A, 4-amino-5-(5-chloropyridin-2-yl)-2-(8-(cyclobutylmethyl)imidazo [1,2-a]pyrazin-6-yl)-5-methyl-5H-pyrrolo[2,3-d]pyrimidin-6(7H)-one]
18 | 103% | 33 nM | CC1(c2ccc(OC(F)F)cn2)C(=O)Nc2nc(-c3cn4ccnc4c(CC4CCC4)n3)nc(N)c21 (stereo not shown) [Example 117A, 4-amino-2-(8-(cyclobutylmethyl)imidazo [1,2-a]pyrazin-6-yl)-5-(5-(difluoromethoxy)pyridin-2-yl)-5-methyl-5H-pyrrolo[2,3-d]pyrimidin-6(7H)-one]
19 | 121% | 161 nM | CC1(c2ccc(C(F)(F)F)cn2)C(=O)Nc2nc(-c3cn4ccnc4c(CC4CCC4)n3)nc(N)c21 (stereo not shown) [Example 119B, 4-amino-2-(8-(cyclobutylmethyl)imidazo [1,2-a]pyrazin-6-yl)-5-methyl-5-(5-(trifluoromethyl)pyridin-2-yl)-5H-pyrrolo[2,3-d]pyrimidin-6(7H)-one]
20 | 112% | 31 nM | CC(C)(C)CCc1nc(-c2nc(N)c3c(n2)NC(=O)C3(C)c2ccc(Cl)cc2)cn2ccnc12 (stereo not shown) [Example 120A, 4-amino-5-(4-chlorophenyl)-2-(8-(3,3-dimethylbutyl)imidazo[1,2-a]pyrazin-6-yl)-5-methyl-5H-pyrrolo[2,3-d]pyrimidin-6(7H)-one]
